From US10344054B2, “Angiotensin-1-receptor antagonists” (Ferring B.V., priority 2016, dated 2019)
Residues, ends and D or L forms follow the SMILES beside them.

Key:
[1] = target: T1, hAT1R (Homo sapiens, UniProt P30556); test: FLIPR calcium flux assay, Part II: antagonist activity against Angiotensin II; format: cell-based; conditions: for Emax: read-out: hAT1R Antagonist Efficacy Antag (%) Ave; for IC50: read-out: hAT1R Antagonist IC50 Ave; as to hAT1R Antagonist Efficacy Antag (%) Ave: Angiotensin II 10 nM final concentration
T1 sequence (P30556 1-359): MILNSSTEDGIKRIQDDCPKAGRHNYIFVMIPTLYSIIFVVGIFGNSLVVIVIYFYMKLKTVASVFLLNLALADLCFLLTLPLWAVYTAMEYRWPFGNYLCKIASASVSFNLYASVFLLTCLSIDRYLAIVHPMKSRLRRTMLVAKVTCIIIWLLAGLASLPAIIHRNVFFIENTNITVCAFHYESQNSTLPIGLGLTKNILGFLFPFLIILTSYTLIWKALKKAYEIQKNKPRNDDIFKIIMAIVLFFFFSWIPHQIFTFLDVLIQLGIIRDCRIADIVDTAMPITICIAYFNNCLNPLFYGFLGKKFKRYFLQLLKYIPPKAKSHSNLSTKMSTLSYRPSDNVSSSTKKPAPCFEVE
Protocol: (§1) AT1 receptor (AT1R) agonists increase intracellular flux of calcium ions. AT1R antagonists can reduce the agonist effect. […] Compounds were first tested for agonism (Part I) followed by addition of the AT1R agonist angiotensin II to test for antagonist activity (Part II). This assay used a stable hAT1R expressing cell line (ChanTest hAT1R; ChanTest Corp A628). Intracellular flux of calcium in response to agonist was measured through real-time measurement of fluorescence induced through the interaction of Ca2+ (released from intracellular stores) and calcium-sensitive dye. In Part I, cells were exposed to varying concentrations of test compounds and immediately measured for agonist activity (EC50 and Efficacy).
(§2) ChanTest hAT1R stable cells were maintained in Ham's F12 containing 10% (v/v) heat inactivated fetal bovine serum (FBS-HI), 4 mM Glutamax, 1% NEAA, 50 ng/mL plasmocin, 400 μg/mL G418 at 37° C. under 5% CO2 in a humidified atmosphere.
(§3) For FLIPR assay, ChanTest hAT1R cells were trypsinized with 6 ml of Trypsin EDTA solution and harvested in phenol-red free DMEM containing 10% FBS-HI, 4 mM Glutamax and counted, spun down and resuspended in the same medium. The cell suspension was added to the wells of 384-well black PDL clear bottom plates at 2.5×10^4 cells/well, 20 μl/well.
(§4) Preparation of Loading Buffer:
(§5) • Loading Buffer: 1 vial of Calcium 5 Bulk Assay reagent was dissolved in 100 ml of 1× HBSS-20 mM Hepes buffer. • Probenecid was resuspended at 1 M in 1 M NaOH. Once the probenecid had gone into solution, an equal volume of H2O was added to make a solution of 500 mM followed by a 1:100 dilution in the Loading Buffer for a working concentration of 5 mM. The pH was adjusted to 7.4 using 1 M NaOH. Loading the Cells with Loading Buffer • Cell plates were removed from the incubator and 25 μl of Loading Buffer containing probenecid (5 mM) added to each well. • Plates were incubated for 1 hour at 37° C. under 5% CO2 in a humidified atmosphere. […] The remaining steps of the assay were carried forward by FLIPR Tetra. A baseline reading was taken at 1-second (s) intervals for 10 s followed by the addition of 5 μl of 10× compounds. The compound-induced fluorescence signal was then measured for 3 minutes with readings taken at 1-s intervals. • The cell plate was removed from the FLIPR and set aside for an additional 17 minutes. • The cell plate was then transferred back to the FLIPR Tetra, along with the 384 well Angiotensin II agonist dilution plate. A baseline reading was taken at 1-second (s) intervals for 10 seconds, followed by the addition of 5.5 μl of 10× Angiotensin II agonist. The agonist-induced fluorescence signal was then measured for 3 minutes with readings taken at 1-s intervals. • Overall, each well in the FLIPR assay was composed of the following components in a total volume of 55.5 μl:
(§6) Time-course results from the FLIPR Calcium 5 assay were expressed as relative fluorescence light units (RFU). The maximum minus minimum values (Max−Min) were used to quantify the strength of the signal. Mean RFU were calculated from replicate values and plotted on the y-axis versus compound concentration on a logarithmic scale on the x-axis, and a single-binding site, four parameter concentration response model: (MIN+((MAX−MIN)/(1+((EC50/x)^Hill)))), was used to perform non-linear regression analysis, generating concentration response curves. Reported parameters included agonist potency EC50 (the concentration causing half-maximal agonist response), antagonist potency IC50 (the concentration causing half-maximal inhibition of the agonist response for antagonist compounds) and efficacy (% MPE: percent of the maximal possible effect).

[2] = target: T1, hAT1R; test: FLIPR calcium flux assay, Part I: agonist activity; format: cell-based; conditions: ChanTest hAT1R stable cells; % MPE, percent of the maximal possible effect; read-out: hAT1R Agonist Efficacy Agonist (%) Ave
Protocol: as §1, §2, §3, §4, §5, §6

Structure (SMILES)	Emax [1]	IC50 [1]	Emax [2]
CNCC(=O)N[C@@H](CCCNC(=N)N)C(=O)N[C@H](C(=O)N[C@@H](Cc1ccc(O)cc1)C(=O)N[C@H](C(=O)N[C@@H](Cc1c[nH]cn1)C(=O)N1CCC[C@H]1C(=O)N[C@H](Cc1cccc2ccccc12)C(=O)O)C(C)C)C(C)C [Compound 1, Sar-Arg-Val-Tyr-Val-His-Pro-(D-1Nal)-OH] (HELM PEPTIDE1{[Sar].R.V.Y.V.H.P.[O=C(O)[C@@H](Cc1cccc2ccccc12)N[*:1]]}$$$$V2.0)	99%	10.6 nM	5%
CNCC(=O)N[C@@H](CCCNC(=N)N)C(=O)N[C@H](C(=O)N[C@@H](Cc1ccc(O)cc1)C(=O)N[C@@H](CCCCN)C(=O)N[C@@H](Cc1c[nH]cn1)C(=O)N1CCC[C@H]1C(=O)N[C@H](Cc1cccc2ccccc12)C(=O)O)C(C)C [Compound 2, Sar-Arg-Val-Tyr-Lys-His-Pro-(D-1Nal)-OH] (HELM PEPTIDE1{[Sar].R.V.Y.K.H.P.[O=C(O)[C@@H](Cc1cccc2ccccc12)N[*:1]]}$$$$V2.0)	100%	16.5 nM	1%
CNCC(=O)N[C@@H](CCCNC(=N)N)C(=O)N[C@H](C(=O)N[C@@H](Cc1ccc(O)cc1)C(=O)N[C@H](C(=O)N[C@@H](Cc1c[nH]cn1)C(=O)N1CCC[C@H]1C(=O)N[C@H](Cc1ccccc1C(F)(F)F)C(=O)O)C(C)C)C(C)C [Compound 3, Sar-Arg-Val-Tyr-Val-His-Pro-(D-Phe(2-CF3))—OH] (HELM PEPTIDE1{[Sar].R.V.Y.V.H.P.[O=C(O)[C@@H](Cc1ccccc1C(F)(F)F)N[*:1]]}$$$$V2.0)	99%	23.6 nM	5%
CNCC(=O)N[C@@H](CCCNC(=N)N)C(=O)N[C@H](C(=O)N[C@@H](Cc1ccc(O)cc1)C(=O)N[C@H](C(=O)N[C@@H](Cc1c[nH]cn1)C(=O)N1CCC[C@H]1C(=O)N[C@H](Cc1ccccc1Cl)C(=O)O)C(C)C)C(C)C [Compound 4, Sar-Arg-Val-Tyr-Val-His-Pro-(D-Phe(2-Cl))—OH] (HELM PEPTIDE1{[Sar].R.V.Y.V.H.P.[O=C(O)[C@@H](Cc1ccccc1Cl)N[*:1]]}$$$$V2.0)	99%	10.7 nM	6%
CNCC(=O)N[C@@H](CCCNC(=N)N)C(=O)N[C@H](C(=O)N[C@@H](Cc1ccc(O)cc1)C(=O)N[C@H](C(=O)N[C@@H](Cc1c[nH]cn1)C(=O)N1CCC[C@H]1C(=O)N[C@H](Cc1ccccc1C#N)C(=O)O)C(C)C)C(C)C [Compound 5, Sar-Arg-Val-Tyr-Val-His-Pro-(D-Phe(2-CN))—OH] (HELM PEPTIDE1{[Sar].R.V.Y.V.H.P.[N#Cc1ccccc1C[C@@H](N[*:1])C(=O)O]}$$$$V2.0)	100%	59.6 nM	5%
CNCC(=O)N[C@@H](CCCNC(=N)N)C(=O)N[C@H](C(=O)N[C@@H](Cc1ccc(O)cc1)C(=O)N[C@H](C(=O)N[C@@H](Cc1c[nH]cn1)C(=O)N1CCC[C@H]1C(=O)N[C@H](Cc1ccccc1-c1ccccc1)C(=O)O)C(C)C)C(C)C [Compound 6, Sar-Arg-Val-Tyr-Val-His-Pro-(D-Phe(2-Ph))—OH] (HELM PEPTIDE1{[Sar].R.V.Y.V.H.P.[O=C(O)[C@@H](Cc1ccccc1-c1ccccc1)N[*:1]]}$$$$V2.0)	99%	16.6 nM	10%
CNCC(=O)N[C@@H](CCCNC(=N)N)C(=O)N[C@H](C(=O)N[C@@H](Cc1ccc(O)cc1)C(=O)N[C@H](C(=O)N[C@@H](Cc1c[nH]cn1)C(=O)N1CCC[C@H]1C(=O)N[C@H](Cc1ccc(Cl)cc1Cl)C(=O)O)C(C)C)C(C)C [Compound 7, Sar-Arg-Val-Tyr-Val-His-Pro-(D-Phe(2,4-diCl))—OH] (HELM PEPTIDE1{[Sar].R.V.Y.V.H.P.[O=C(O)[C@@H](Cc1ccc(Cl)cc1Cl)N[*:1]]}$$$$V2.0)	99%	6.4 nM	12%
CNCC(=O)N[C@@H](CCCNC(=N)N)C(=O)N[C@H](C(=O)N[C@@H](Cc1ccc(O)cc1)C(=O)N[C@H](C(=O)N[C@@H](Cc1c[nH]cn1)C(=O)N1CCC[C@H]1C(=O)N[C@H](Cc1c(C)cccc1C)C(=O)O)C(C)C)C(C)C [Compound 8, Sar-Arg-Val-Tyr-Val-His-Pro-(D-Phe(2,6-diMe))—OH] (HELM PEPTIDE1{[Sar].R.V.Y.V.H.P.[Cc1cccc(C)c1C[C@@H](N[*:1])C(=O)O]}$$$$V2.0)	101%	8.5 nM	3%
CNCC(=O)N[C@@H](CCCNC(=N)N)C(=O)N[C@H](C(=O)N[C@@H](Cc1ccc(O)cc1)C(=O)N[C@H](C(=O)N[C@@H](Cc1c[nH]cn1)C(=O)N1CCC[C@H]1C(=O)N[C@H](Cc1ccccc1C)C(=O)O)C(C)C)C(C)C [Compound 9, Sar-Arg-Val-Tyr-Val-His-Pro-(D-Phe(2-Me))—OH] (HELM PEPTIDE1{[Sar].R.V.Y.V.H.P.[Cc1ccccc1C[C@@H](N[*:1])C(=O)O]}$$$$V2.0)	99%	13.9 nM	4%
CNCC(=O)N[C@@H](CCCNC(=N)N)C(=O)N[C@H](C(=O)N[C@@H](Cc1ccc(O)cc1)C(=O)N[C@H](C(=O)N[C@@H](Cc1c[nH]cn1)C(=O)N1CCC[C@H]1C(=O)N[C@H](Cc1csc2ccccc12)C(=O)O)C(C)C)C(C)C [Compound 10, Sar-Arg-Val-Tyr-Val-His-Pro-(D-(3-benzothienyl)alanine)-OH] (HELM PEPTIDE1{[Sar].R.V.Y.V.H.P.[O=C(O)[C@@H](Cc1csc2ccccc12)N[*:1]]}$$$$V2.0)	99%	9.5 nM	5%
CNCC(=O)N[C@@H](CCCNC(=N)N)C(=O)N[C@H](C(=O)N[C@@H](Cc1ccc(O)cc1)C(=O)N[C@H](C(=O)N[C@@H](Cc1c[nH]cn1)C(=O)N1CCC[C@H]1C(=O)N[C@H](Cc1ccccc1Br)C(=O)O)C(C)C)C(C)C [Compound 11, Sar-Arg-Val-Tyr-Val-His-Pro-(D-Phe(2-Br))—OH] (HELM PEPTIDE1{[Sar].R.V.Y.V.H.P.[O=C(O)[C@@H](Cc1ccccc1Br)N[*:1]]}$$$$V2.0)	99%	8.7 nM	4%
CNCC(=O)N[C@@H](CCCNC(=N)N)C(=O)N[C@H](C(=O)N[C@@H](Cc1ccc(O)cc1)C(=O)N[C@@H](Cc1ccc(O)cc1)C(=O)N[C@@H](Cc1c[nH]cn1)C(=O)N1CCC[C@H]1C(=O)N[C@H](Cc1cccc2ccccc12)C(=O)O)C(C)C [Compound 12, Sar-Arg-Val-Tyr-Tyr-His-Pro-(D-1Nal)-OH]	100%	3.4 nM	5%
CNCC(=O)N[C@@H](CCCNC(=N)N)C(=O)N[C@H](C(=O)N[C@@H](Cc1ccc(O)cc1)C(=O)N[C@@H](Cc1ccc(N)cc1)C(=O)N[C@@H](Cc1c[nH]cn1)C(=O)N1CCC[C@H]1C(=O)N[C@H](Cc1cccc2ccccc12)C(=O)O)C(C)C [Compound 13, Sar-Arg-Val-Tyr-Aph-His-Pro-(D-1Nal)-OH] (HELM PEPTIDE1{[Sar].R.V.Y.[Nc1ccc(C[C@H](N[*:1])C(=O)[*:2])cc1].H.P.[O=C(O)[C@@H](Cc1cccc2ccccc12)N[*:1]]}$$$$V2.0)	100%	3.2 nM	7%
